The experiment has as its system LH86 cells or Huh7.5 cells. The experiment in a line: Tumor growth of implanted HCV susceptible cell lines in immune deficient mice. It counts as in vivo. The following applies: injection of human EGF to NOD-SCID mice bearing subcutaneous tumor cells. The method, then:
To establish a mouse model that is capable of supporting the whole viral life cycle, the present inventors implanted HCV susceptible cell lines (LH86 cells of the present invention or Huh7.5 cells) to immune deficient mice (NOD-SCID). When 1×10^6 cells were injected subcutaneously into the mice, visible tumor (0.5 cm) formed in one week, and the tumor continued to grow to 5 cm in size in 6 weeks. For LH86 cells, 5×10^6 tumor cells must be injected to achieve a similar tumor growth pattern.

On to “human EGF: human EGF injected to mice (NSDSECPLSHDGYCLHDGVCMYIEALDKYACNCVVGYIGERCQYRDLKWWELR; UniProt P01133 971-1023, looked up)”, for which the tumor growth rate entry was “significantly accelerate”.

The values are drawn from patent US8017391B2, “Human liver cancer cell line” (Univesity of Florida Research Foundation, Inc., priority 2006, dated 2011).
